Tests used:
Test in all cases: biochemical
Set-up in all cases: KINOMEscan competition binding panel (Eurofins DiscoverX), single concentration, percent inhibition
Details in all cases: read-out: 15 at 1 µM % inhibition
[1] = target: CAMK2B (Homo sapiens, UniProt Q13554)
In short: (§1)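 Binding was profiled in the KINOMEscan panel of over 400 human kinases, with each compound tested at a single concentration of 1 µM to map selectivity.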

[2] = target: T1, IKK-alpha (Homo sapiens, UniProt O15111)
T1 construct: gene CHUK
In short: as §1

[3] = target: MAP3K15 (Homo sapiens, UniProt Q6ZN16)
In short: as §1

[4] = target: BRSK1 (Homo sapiens, UniProt Q8TDC3)
In short: as §1

[5] = target: PIKFYVE (Homo sapiens, UniProt Q9Y2I7)
In short: as §1

[6] = target: ACVR1 (Homo sapiens, UniProt Q04771)
In short: as §1

[7] = target: T2, ABL1(M351T)-phosphorylated (Homo sapiens, UniProt P00519, M351T)
T2 construct: phosphorylated
In short: as §1

[8] = target: NEK10 (Homo sapiens, UniProt Q6ZWH5)
In short: as §1

[9] = target: MERTK (Homo sapiens, UniProt Q12866)
In short: as §1

[10] = target: PKMYT1 (Homo sapiens, UniProt Q99640)
In short: as §1

[11] = target: T3, RSK3(Kin.Dom.1-N-terminal) (Homo sapiens, UniProt Q15349)
T3 construct: gene RPS6KA2; Kin.Dom.1-N-terminal
In short: as §1

[12] = target: PHKG2 (Homo sapiens, UniProt P15735)
In short: as §1

[13] = target: MELK (Homo sapiens, UniProt Q14680)
In short: as §1

[14] = target: NEK4 (Homo sapiens, UniProt P51957)
In short: as §1

[15] = target: T4, PIP5K2C (Homo sapiens, UniProt Q8TBX8)
T4 construct: gene PIP4K2C
In short: as §1

[16] = target: STK35 (Homo sapiens, UniProt Q8TDR2)
In short: as §1

[17] = target: EGFR(S752-I759del) (Homo sapiens, UniProt P00533, DEL752-759)
In short: as §1

[18] = target: ROCK1 (Homo sapiens, UniProt Q13464)
In short: as §1

[19] = target: AAK1 (Homo sapiens, UniProt Q2M2I8)
In short: as §1

[20] = target: T5, MEK6 (Homo sapiens, UniProt P52564)
T5 construct: gene MAP2K6
In short: as §1

[21] = target: T6, ZAK (Homo sapiens, UniProt Q9NYL2)
T6 construct: gene MAP3K20
In short: as §1

[22] = target: RET(M918T) (Homo sapiens, UniProt P07949, M918T)
In short: as §1

[23] = target: T7, PIP5K2B (Homo sapiens, UniProt P78356)
T7 construct: gene PIP4K2B
In short: as §1

[24] = target: NEK2 (Homo sapiens, UniProt P51955)
In short: as §1

NEK2, sequence (P51955 whole entry): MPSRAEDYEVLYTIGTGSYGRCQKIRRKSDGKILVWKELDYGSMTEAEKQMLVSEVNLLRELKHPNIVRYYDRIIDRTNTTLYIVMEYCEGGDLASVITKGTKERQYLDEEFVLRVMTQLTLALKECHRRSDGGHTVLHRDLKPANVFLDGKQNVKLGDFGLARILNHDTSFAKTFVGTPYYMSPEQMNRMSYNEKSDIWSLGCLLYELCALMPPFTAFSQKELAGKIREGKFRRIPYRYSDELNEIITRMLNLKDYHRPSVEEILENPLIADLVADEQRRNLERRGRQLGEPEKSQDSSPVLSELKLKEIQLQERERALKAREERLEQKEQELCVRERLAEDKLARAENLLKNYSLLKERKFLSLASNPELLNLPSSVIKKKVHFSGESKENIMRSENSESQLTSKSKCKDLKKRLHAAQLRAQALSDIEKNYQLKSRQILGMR
AAK1, sequence (Q2M2I8 whole entry): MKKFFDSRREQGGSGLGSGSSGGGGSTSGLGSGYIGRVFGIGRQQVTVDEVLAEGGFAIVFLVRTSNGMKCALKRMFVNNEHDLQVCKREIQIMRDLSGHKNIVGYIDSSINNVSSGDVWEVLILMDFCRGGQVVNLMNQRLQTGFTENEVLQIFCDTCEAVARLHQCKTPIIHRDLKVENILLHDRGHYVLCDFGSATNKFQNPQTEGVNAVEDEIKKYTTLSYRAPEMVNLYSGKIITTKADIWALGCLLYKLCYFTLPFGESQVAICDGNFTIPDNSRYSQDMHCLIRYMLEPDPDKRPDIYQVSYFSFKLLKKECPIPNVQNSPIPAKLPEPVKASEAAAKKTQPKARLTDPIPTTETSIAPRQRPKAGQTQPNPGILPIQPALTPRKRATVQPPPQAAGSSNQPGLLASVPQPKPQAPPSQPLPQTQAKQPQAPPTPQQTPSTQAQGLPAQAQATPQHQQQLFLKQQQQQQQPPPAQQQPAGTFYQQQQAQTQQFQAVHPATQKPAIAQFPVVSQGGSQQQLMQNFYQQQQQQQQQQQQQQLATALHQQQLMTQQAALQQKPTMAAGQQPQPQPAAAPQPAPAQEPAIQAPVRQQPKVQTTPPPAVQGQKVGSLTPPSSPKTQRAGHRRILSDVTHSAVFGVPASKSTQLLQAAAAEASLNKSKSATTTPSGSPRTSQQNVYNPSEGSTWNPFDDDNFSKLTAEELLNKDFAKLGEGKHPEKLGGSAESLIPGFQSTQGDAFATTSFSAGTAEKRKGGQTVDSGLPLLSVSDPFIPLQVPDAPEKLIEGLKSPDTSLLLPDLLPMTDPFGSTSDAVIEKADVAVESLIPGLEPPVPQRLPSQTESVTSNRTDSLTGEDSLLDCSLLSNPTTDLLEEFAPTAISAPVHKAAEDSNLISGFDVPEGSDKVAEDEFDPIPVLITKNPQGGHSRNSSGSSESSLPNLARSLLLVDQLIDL
T6 sequence (Q9NYL2 whole entry): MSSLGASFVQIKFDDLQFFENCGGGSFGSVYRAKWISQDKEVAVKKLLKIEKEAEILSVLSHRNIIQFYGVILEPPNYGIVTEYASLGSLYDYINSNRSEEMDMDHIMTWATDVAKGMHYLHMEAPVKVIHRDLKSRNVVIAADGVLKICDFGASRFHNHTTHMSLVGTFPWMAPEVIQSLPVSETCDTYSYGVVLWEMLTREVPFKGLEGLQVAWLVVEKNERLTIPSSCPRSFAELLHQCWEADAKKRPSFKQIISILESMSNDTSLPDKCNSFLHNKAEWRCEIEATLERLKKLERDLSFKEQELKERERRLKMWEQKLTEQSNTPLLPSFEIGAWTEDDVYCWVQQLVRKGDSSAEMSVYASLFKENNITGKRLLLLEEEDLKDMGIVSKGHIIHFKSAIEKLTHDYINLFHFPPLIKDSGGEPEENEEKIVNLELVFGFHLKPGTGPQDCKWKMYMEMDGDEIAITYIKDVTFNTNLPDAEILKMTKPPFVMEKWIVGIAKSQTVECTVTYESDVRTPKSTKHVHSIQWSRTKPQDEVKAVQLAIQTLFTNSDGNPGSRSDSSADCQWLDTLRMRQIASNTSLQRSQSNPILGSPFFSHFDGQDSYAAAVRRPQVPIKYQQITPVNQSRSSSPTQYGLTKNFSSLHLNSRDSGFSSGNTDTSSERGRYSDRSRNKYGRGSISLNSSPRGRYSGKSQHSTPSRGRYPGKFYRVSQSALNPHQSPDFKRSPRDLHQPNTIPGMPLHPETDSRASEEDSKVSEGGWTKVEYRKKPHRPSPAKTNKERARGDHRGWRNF
PKMYT1, sequence (Q99640 whole entry): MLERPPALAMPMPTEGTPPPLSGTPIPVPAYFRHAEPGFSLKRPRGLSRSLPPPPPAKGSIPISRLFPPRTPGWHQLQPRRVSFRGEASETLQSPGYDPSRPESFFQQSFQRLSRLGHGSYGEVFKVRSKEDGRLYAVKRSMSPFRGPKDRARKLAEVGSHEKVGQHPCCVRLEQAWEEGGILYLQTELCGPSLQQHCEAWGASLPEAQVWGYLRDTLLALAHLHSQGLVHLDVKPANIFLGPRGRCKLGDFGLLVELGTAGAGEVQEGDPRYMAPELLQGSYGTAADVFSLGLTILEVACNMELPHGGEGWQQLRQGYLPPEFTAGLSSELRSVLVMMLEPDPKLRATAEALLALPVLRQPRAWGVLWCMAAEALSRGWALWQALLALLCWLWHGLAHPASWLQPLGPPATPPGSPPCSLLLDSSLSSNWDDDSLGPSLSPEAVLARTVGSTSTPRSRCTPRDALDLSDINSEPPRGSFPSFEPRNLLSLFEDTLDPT
NEK10, sequence (Q6ZWH5 whole entry): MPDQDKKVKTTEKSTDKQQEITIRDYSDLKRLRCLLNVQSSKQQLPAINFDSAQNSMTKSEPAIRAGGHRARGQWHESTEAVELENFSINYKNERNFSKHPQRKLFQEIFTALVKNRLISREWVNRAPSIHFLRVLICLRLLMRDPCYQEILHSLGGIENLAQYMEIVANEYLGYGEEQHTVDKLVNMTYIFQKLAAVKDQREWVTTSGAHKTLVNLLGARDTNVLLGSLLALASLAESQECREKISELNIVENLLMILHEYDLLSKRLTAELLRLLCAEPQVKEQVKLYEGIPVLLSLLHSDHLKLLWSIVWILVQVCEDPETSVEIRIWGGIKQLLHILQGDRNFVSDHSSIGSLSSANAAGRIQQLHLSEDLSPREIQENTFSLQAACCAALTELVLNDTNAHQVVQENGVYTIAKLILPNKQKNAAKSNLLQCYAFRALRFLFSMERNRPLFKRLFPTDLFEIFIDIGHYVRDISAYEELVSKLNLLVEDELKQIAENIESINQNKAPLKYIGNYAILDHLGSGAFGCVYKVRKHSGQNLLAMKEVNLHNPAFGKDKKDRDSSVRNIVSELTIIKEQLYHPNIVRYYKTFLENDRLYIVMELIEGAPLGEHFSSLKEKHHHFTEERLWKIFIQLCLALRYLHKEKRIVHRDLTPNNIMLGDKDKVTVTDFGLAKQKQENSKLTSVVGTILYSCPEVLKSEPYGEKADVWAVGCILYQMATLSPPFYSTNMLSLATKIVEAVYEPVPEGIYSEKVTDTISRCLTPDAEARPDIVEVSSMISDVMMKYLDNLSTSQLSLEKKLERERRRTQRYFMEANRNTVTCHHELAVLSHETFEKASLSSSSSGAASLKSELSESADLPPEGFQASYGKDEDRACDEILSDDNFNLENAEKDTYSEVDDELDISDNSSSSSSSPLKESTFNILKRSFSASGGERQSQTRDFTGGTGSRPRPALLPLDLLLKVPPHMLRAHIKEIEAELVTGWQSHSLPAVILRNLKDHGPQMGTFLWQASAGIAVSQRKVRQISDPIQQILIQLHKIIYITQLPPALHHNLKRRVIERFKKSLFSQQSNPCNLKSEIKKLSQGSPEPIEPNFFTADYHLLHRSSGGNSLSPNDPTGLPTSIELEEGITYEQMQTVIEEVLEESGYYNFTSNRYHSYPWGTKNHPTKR
T7 sequence (P78356 whole entry): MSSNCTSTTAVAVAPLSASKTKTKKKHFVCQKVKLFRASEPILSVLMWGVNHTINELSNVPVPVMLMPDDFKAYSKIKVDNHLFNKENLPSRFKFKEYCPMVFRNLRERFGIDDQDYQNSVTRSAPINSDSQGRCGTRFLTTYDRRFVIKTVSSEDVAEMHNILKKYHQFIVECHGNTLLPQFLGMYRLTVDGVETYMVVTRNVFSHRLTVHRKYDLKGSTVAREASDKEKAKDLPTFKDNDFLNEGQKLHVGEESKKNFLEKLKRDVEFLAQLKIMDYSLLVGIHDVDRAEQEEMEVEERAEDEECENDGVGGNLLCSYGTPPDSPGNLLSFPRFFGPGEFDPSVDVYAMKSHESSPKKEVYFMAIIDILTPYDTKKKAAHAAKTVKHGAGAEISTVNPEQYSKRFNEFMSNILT
BRSK1, sequence (Q8TDC3 whole entry): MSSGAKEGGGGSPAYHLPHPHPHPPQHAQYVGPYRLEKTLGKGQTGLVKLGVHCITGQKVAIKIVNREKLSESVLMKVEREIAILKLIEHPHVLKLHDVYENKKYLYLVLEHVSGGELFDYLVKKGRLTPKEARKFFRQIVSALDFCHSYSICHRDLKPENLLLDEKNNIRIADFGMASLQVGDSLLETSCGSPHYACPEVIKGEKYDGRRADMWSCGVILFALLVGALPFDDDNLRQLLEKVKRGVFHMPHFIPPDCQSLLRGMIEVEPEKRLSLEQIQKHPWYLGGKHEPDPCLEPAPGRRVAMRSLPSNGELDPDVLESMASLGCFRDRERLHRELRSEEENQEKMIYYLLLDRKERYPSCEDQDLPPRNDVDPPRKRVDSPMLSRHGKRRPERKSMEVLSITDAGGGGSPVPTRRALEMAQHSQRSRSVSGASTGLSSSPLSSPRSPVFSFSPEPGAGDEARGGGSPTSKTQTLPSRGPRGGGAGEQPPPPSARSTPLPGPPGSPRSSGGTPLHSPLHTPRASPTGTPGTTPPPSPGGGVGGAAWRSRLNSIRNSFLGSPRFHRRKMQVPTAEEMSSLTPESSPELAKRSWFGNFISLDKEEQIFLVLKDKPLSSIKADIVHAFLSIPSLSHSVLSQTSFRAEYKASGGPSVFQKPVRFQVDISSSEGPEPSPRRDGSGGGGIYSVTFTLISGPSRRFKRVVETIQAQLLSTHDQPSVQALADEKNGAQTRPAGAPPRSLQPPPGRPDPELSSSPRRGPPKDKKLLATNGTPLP

An inhibition at 1 µM [1] of 0%, an inhibition at 1 µM [2] of 33% and an inhibition at 1 µM [3] of 28% were found for CNS(=O)(=O)c1ccc(N(C)C)c(Nc2nc(C)nc3cc(OC)c(OC)cc23)c1 [compound 15, 3-((6,7-dimethoxy-2-methylquinazolin-4-yl)amino)-4-(dimethylamino)-N-methylbenzenesulfonamide] in this work. It also gave an inhibition at 1 µM [4] of 0%, an inhibition at 1 µM [5] of 13% and an inhibition at 1 µM [6] of 0%. It also gave an inhibition at 1 µM [7] of 0%, an inhibition at 1 µM [8] of 0% and an inhibition at 1 µM [9] of 0%. It also gave an inhibition at 1 µM [10] of 0%, an inhibition at 1 µM [11] of 11% and an inhibition at 1 µM [12] of 2%. The inhibition at 1 µM [13] was 0%, the inhibition at 1 µM [14] was 13% and the inhibition at 1 µM [15] was 18%. The inhibition at 1 µM [16] was 0%, the inhibition at 1 µM [17] was 9% and the inhibition at 1 µM [18] was 34%. For the same molecule, the inhibition at 1 µM [19] was 4%, the inhibition at 1 µM [20] was 0% and the inhibition at 1 µM [21] was 1%. For the same molecule, the inhibition at 1 µM [22] was 0%, the inhibition at 1 µM [23] was 0% and the inhibition at 1 µM [24] was 1%.
